Results: US8252801B1, “Treatment of schizophrenia and related disorders” (Abbott Laboratories, priority 2009, dated 2012)
Where two headings read alike, the source gives them in different places.

How the values were obtained:
[1] = cited from earlier work
Male DBA/2J mice [2] = experiment: Prepulse inhibition (PPI) model, Compound A alone; type: in vivo, mouse; settings: Compound A alone at 0.01, 0.1 and 1.0 mg/kg i.p., 30 min before testing; FIG. 1
Excerpt: Dysfunctions of sensory gating and information processing have been putatively associated with clinical features such as perpetual aberrations, hallucinations and distraction and been considered as potential precursors of sensory overload, cognitive fragmentation and disorganization. Among the physiological measures, one approach has involved the startle reflex with the prepulse inhibition (PPI) paradigm. […] PPI refers to a reduction in the acoustic startle reflex to a loud noise when the loud noise is preceded by a weak auditory stimulus. At short lead intervals, this has the effect of markedly reducing or gating the amplitude of the startle response and increasing its latency. Disruption of PPI occurs with agonists of dopamine and serotonin, and with glutamate/N-methyl D aspartate (NMDA) receptor antagonists, or can be induced by genetic (e.g., DBA2 mouse strain) and experimental manipulations (e.g., rearing rats in isolation, neurotoxic lesions, or other methods). […] (Olivier B., et al., Psychopharmacology (2001) vol. 156:284-290; Ouagazzal A-M., Psychopharmacology (2001) vol. 156:273-283; Simosky J. K., Psychopharmacology (2003) vol. 165:386-396). […]
Animals: Male DBA/2J mice (Jackson Labs AX9 facility, Bar Harbor, Me., USA) at age 6-8 weeks old were used. […] Experimental Procedure: Startle response and PPI were measured using startle chambers from Hamilton Kinder (Poway, Calif., USA). […]

Male DBA/2J mice [3] = experiment: Prepulse inhibition (PPI) model, Compound A on a subefficacious dose of risperidone; type: in vivo, mouse; settings: FIG. 2
Experimental: Animals: Male DBA/2J mice (Jackson Labs AX9 facility, Bar Harbor, Me., USA) at age 6-8 weeks old were used. They were housed under standard facility conditions in groups of eight on a 12 h light/dark cycle (lights on at 0600 h) with ad libitum access to food and water. Chemicals: 2-{4′-[(3aR,6aR)-5-Methylhexahydropyrrolo[3,4-b]pyrrol-1(2H)-yl]-1,1′-biphenyl-4-yl}pyridazin-3(2H)-one was prepared at Abbott Laboratories; risperidone (3-[2-[4-(6-fluoro-1,2-benzisoxazol-3-yl)-1-piperidinyl]ethyl]-6,7,8,9-tetrahydro-2-methyl-4H-pyridol[1,2-a]pyrimidin-4-one, MW 410.5) was obtained from ICN Biomedicals Inc. (Aurora, Ohio, USA). […] Experimental Procedure: Startle response and PPI were measured using startle chambers from Hamilton Kinder (Poway, Calif., USA). […] In the startle alone trials, the amount of PPI was calculated as a percentage score for each acoustic prepulse trial type using (typically) the formula: […]. Statistics: Data were analyzed using a one-way ANOVA. All post hoc significance was determined using Dunnett's multiple comparison test (p<0.05 was regarded as significance). […]
Statistics: Data were analyzed using a one-way ANOVA. All post hoc significance was determined using Dunnett's multiple comparison test (p<0.05 was regarded as significance).

Male Sprague Dawley rats = experiment: Catalepsy (bar test), Compound A in combination with risperidone; type: in vivo, rat; settings: Compound A 0.1 or 1.0 mg/kg i.p. 10 min prior to risperidone 2.5 mg/kg i.p.; total catalepsy over 60-240 min; FIG. 3
Experimental: Animals: Male Sprague Dawley rats (CRL: CD (SD), Charles River Laboratories, Omaha, Nebr., USA) weighing 300-325 g were used for the experiment. They were housed under standard conditions in groups of 4 rats on a 12 h light/dark cycle (lights on at 0600 h) with ad libitum access to food and water. Preparation of Compounds: 2-{4′-[(3aR,6aR)-5-Methylhexahydropyrrolo[3,4-b]pyrrol-1(2H)-yl]-1,1′-biphenyl-4-yl}pyridazin-3(2H)-one (Compound A) and risperidone were solubilized as described above, and were administered in solution in a volume of 1.0 ml/kg body weight. Experimental Procedure: Rats were handled and habituated to the testing room before starting. […] The degree of catalepsy was measured by gently placing both forepaws over a metal bar (1.1 cm. diameter suspended 8 cm. above the table top). The time in seconds until the rat took both paws off the bar was recorded, with a maximum cut-off of 300 seconds. […] At least 5 trials were attempted on each rat with 5 seconds used as a low-end cut-off for catalepsy (time scored as zero). For catalepsy times between 5-15 seconds, the highest time of 5 trials was recorded. Alternately, any catalepsy trial time that was greater than 15 seconds (up to 300 seconds) was recorded. Statistics: Data for the 4 times points were summed across the session, and the total catalepsy scores were analyzed using a one-way analysis of variance (ANOVA). […]

[4] = clinical use, Table 1, hyperprolactinaemia
[5] = clinical use, Table 1, sexual dysfunction

O=C1Cc2cc(CCN3CCN(c4nsc5ccccc45)CC3)c(Cl)cc2N1 [Ziprasidone, 5-[2-[4-(1,2-benzoisothiazol-3-yl)-1-piperazinyl]ethyl]-6-chloro-1,3-dihydro-2H-indol-2-one]
Dose of Increased Side Effect Risk (EPS risk) ([1]; Table 2): >80 mg/day | EPS risk: dose of augmented risk ([1]; clinical use, Table 1): risk >80 mg/kg/day

CN1C[C@H]2CCN(c3ccc(-c4ccc(-n5ncccc5=O)cc4)cc3)[C@H]2C1 [Compound A, 2-{4′-[(3aR,6aR)-5-methylhexahydropyrrolo[3,4-b]pyrrol-1(2H)-yl]-1,1′-biphenyl-4-yl}pyridazin-3(2H)-one]
PPI responding (Male DBA/2J mice [2]): did not significantly alter PPI responding | efficacy of risperidone (0.1 mg/kg) in PPI in combination with 0.1 mg/kg Compound A (Male DBA/2J mice [3]; 0.1 mg/kg Compound A + 0.1 mg/kg risperidone, comparable to 1.0 mg/kg risperidone): attained maximal efficacy | efficacy of risperidone (0.1 mg/kg) in PPI in the presence of Compound A (Male DBA/2J mice [3]; Compound A 0.01, 0.1 or 1.0 mg/kg i.p. 35 min, risperidone 0.1 mg/kg 25 min prior to testing): more efficacious | cataleptic behavior of risperidone when administered in combination (Male Sprague Dawley rats): did not significantly alter cataleptic behavior

CN1CCN(C2=Nc3cc(Cl)ccc3Nc3ccccc32)CC1 [Clozapine, 8-chloro-11-(4-methyl-1-piperazinyl)-5H-dibenzo[b,e][1,4]diazepine]
Dose of Increased Side Effect Risk (low risk for seizures) ([1]; Table 2): <300 mg/day | Dose of Increased Side Effect Risk (moderate risk for seizures) ([1]; Table 2): 300 to 599 mg/day

O=C(CCCN1CCC(O)(c2ccc(Cl)cc2)CC1)c1ccc(F)cc1 [Haloperidol, 4-(4-chlorophenyl)-1-[4-(4-fluorophenyl)-4-oxobutyl]-4 piperidinyl]
Dose of Increased Side Effect Risk ([1]; Table 2, risk for EPS): ~3 mg | Other Dose Related Side Effects [1, 4]: hyper- | Other Dose Related Side Effects [1, 5]: sexual

Cc1nc2n(c(=O)c1CCN1CCC(c3noc4cc(F)ccc34)CC1)CCCC2 [Risperidone, 3-[2-[4-(6-fluoro-1,2-benzisoxazol-3-yl)piperidino]ethyl]-2-methyl-6,7,8,9-tetrahydro-4H-pyrido-[1,2-a]pyrimidin-4-one]
Dose of Increased Side Effect Risk (EPS risk) ([1]; Table 2): ≧6 mg/day | Other Dose Related Side Effects [1, 4]: hyper- | Other Dose Related Side Effects [1, 5]: sexual

O=C1CCc2ccc(OCCCCN3CCN(c4cccc(Cl)c4Cl)CC3)cc2N1 [Arpiprazole]
Dose of Increased Side Effect Risk (somnolence), in words ([1]; Table 2): dose dependent | Other Dose Related Side Effects ([1]; clinical use, Table 1): somnolence
